These results are taken from PubChem BioAssay AID330 (DTP/NCI, 2004).

For this assay, the system named is P388 leukemia ip, CD2F1 mice, survival T/C. As to the kind of experiment: NCI In Vivo Anticancer Drug Screen. Data for tumor model P388 Leukemia (intraperitoneal) in CD2F1 (CDF1) mice. The following applies: endpoint: median survival time, higher = longer survival. The gist of the method: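 Mice carrying the transplanted tumor received test compound or vehicle. Survival was recorded in each group, and the value is the treated-group measurement divided by that of the vehicle-treated control group.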

The mark [1] stands for this setting: dose: 25.0 mg/kg/injection, schedule: Q04DX002 (ip), vehicle: saline with Tween-80.
The mark [2] stands for this setting: dose: 50.0 mg/kg/injection, schedule: Q04DX002 (ip), vehicle: saline with Tween-80.
Setting [3] is: dose: 100.0 mg/kg/injection, schedule: Q04DX002 (ip), vehicle: saline with Tween-80.
Setting [4] is: dose: 50.0 mg/kg/injection, schedule: Q01DX009 (ip), vehicle: saline with Tween-80.
Setting [5] is: dose: 100.0 mg/kg/injection, schedule: Q04DX003 (ip), vehicle: saline with Tween-80.
Setting [6] is: dose: 200.0 mg/kg/injection, schedule: Q01DX009 (ip), vehicle: saline with Tween-80.
[7] abbreviates: dose: 200.0 mg/kg/injection, schedule: Q04DX003 (ip), vehicle: saline with Tween-80.
The mark [8] stands for this setting: dose: 50.0 mg/kg/injection, schedule: Q01DX005 (ip), vehicle: saline with Tween-80.
The mark [9] stands for this setting: dose: 100.0 mg/kg/injection, schedule: Q01DX005 (ip), vehicle: saline with Tween-80.
Setting [10] is: dose: 50.0 mg/kg/injection, schedule: Q01DX005 (ip), vehicle: Klucel (hydroxypropylcellulose) (HPC).
The mark [11] stands for this setting: dose: 100.0 mg/kg/injection, schedule: Q01DX005 (ip), vehicle: Klucel (hydroxypropylcellulose) (HPC).
The mark [12] stands for this setting: dose: 200.0 mg/kg/injection, schedule: Q01DX005 (ip), vehicle: Klucel (hydroxypropylcellulose) (HPC).
[13] abbreviates: dose: 100.0 mg/kg/injection, schedule: Q01DX009 (ip), vehicle: saline with Tween-80.
Setting [14] is: dose: 50.0 mg/kg/injection, schedule: Q01DX009 (ip), vehicle: Klucel (hydroxypropylcellulose) (HPC).
Setting [15] is: dose: 100.0 mg/kg/injection, schedule: Q01DX009 (ip), vehicle: Klucel (hydroxypropylcellulose) (HPC).
Setting [16] is: dose: 200.0 mg/kg/injection, schedule: Q01DX009 (ip), vehicle: Klucel (hydroxypropylcellulose) (HPC).
Where [17] appears, read: dose: 60.0 mg/kg/injection, schedule: Q01DX005 (ip), vehicle: saline with Tween-80.
[18] abbreviates: dose: 120.0 mg/kg/injection, schedule: Q01DX005 (ip), vehicle: saline with Tween-80.
[19] abbreviates: dose: 240.0 mg/kg/injection, schedule: Q01DX005 (ip), vehicle: saline with Tween-80.

Each structure is given as a SMILES string. Toxic doses and inconclusive results are not listed.

On to `CN=C(N)NN=C(c1ccccc1)c1ccccc1`, for which the T/C reads like this: under setting [1], 104 % of control; under setting [2], 109 % of control; under setting [3], 110 % of control.

Consider `CCSC(=O)N1c2ccc(OC)cc2C=CC1C#N` (stereo unspecified), for which the T/C (dose: 44.0 mg/kg/injection, schedule: Q01DX009 (ip), vehicle: saline with Tween-80) was 119 % of control; the T/C under setting [4] was 105 % of control; the T/C (dose: 66.0 mg/kg/injection, schedule: Q01DX009 (ip), vehicle: saline with Tween-80) was 119 % of control; the T/C under setting [5] was 109 % of control; the T/C (dose: 150.0 mg/kg/injection, schedule: Q01DX009 (ip), vehicle: saline with Tween-80) is 160 % of control; the T/C under setting [6] is 108 % of control. Moreover, the T/C reads like this: under setting [7], 118 % of control; (dose: 266.0 mg/kg/injection, schedule: Q04DX003 (ip), vehicle: saline with Tween-80) 124 % of control; (dose: 400.0 mg/kg/injection, schedule: Q01DX009 (ip), vehicle: saline with Tween-80) 118 % of control; (dose: 800.0 mg/kg/injection, schedule: Q01DX009 (ip), vehicle: saline with Tween-80) 96 % of control.

For `CCCCOB(OCCCC)C(C)C(C#N)C#N` (stereo unspecified), the T/C is 92 % of control (dose: 50.0 mg/kg/injection, schedule: Q04DX003 (ip), vehicle: saline); 92 % of control (dose: 100.0 mg/kg/injection, schedule: Q04DX003 (ip), vehicle: saline); 96 % of control (dose: 200.0 mg/kg/injection, schedule: Q04DX003 (ip), vehicle: saline).

As for `CC1(C)OCC(C2OC3OC(C)(C)OC3C2NN)O1` (stereo unspecified), the T/C was 95 % of control under setting [8]; 98 % of control under setting [9]; 100 % of control (dose: 200.0 mg/kg/injection, schedule: Q01DX005 (ip), vehicle: saline with Tween-80).

As to `CCN1c2ccccc2CC(CCN(C(C)C)C(C)C)(C(N)=O)c2ccccc21` (stereo unspecified), the T/C is, setting by setting: under setting [1], 95 % of control; under setting [2], 95 % of control; under setting [3], 95 % of control.

Consider `O=C(O)CCCNC(=O)Cc1ccccc1`, for which the T/C by setting is: (dose: 50.0 mg/kg/injection, schedule: Q01DX005 (ip), vehicle: saline) 93 % of control; (dose: 100.0 mg/kg/injection, schedule: Q01DX005 (ip), vehicle: saline) 90 % of control.

Turning to `COc1cc(CCN=Cc2ccccc2O)c([N+](=O)[O-])cc1OC`, the T/C was 97 % of control under setting [10], 100 % of control under setting [11] and 92 % of control under setting [12].

As for `CC(C)=CCc1c2ccoc2c(O)c2oc(=O)ccc12`, the T/C reads like this: (dose: 25.0 mg/kg/injection, schedule: Q01DX009 (ip), vehicle: saline with Tween-80) 106 % of control; under setting [4], 105 % of control; under setting [13], 105 % of control.

In the case of `CN(C(=S=O)c1ccccc1)c1ccc([N+](=O)[O-])cc1`, the T/C was 95 % of control (dose: 50.0 mg/kg/injection, schedule: Q04DX002 (ip), vehicle: saline); 95 % of control (dose: 100.0 mg/kg/injection, schedule: Q04DX002 (ip), vehicle: saline); 96 % of control (dose: 200.0 mg/kg/injection, schedule: Q04DX002 (ip), vehicle: saline).

As for `COc1ccc(-c2cc3cc(CCCOC4OC(COC5OCC(O)C(O)C5O)C(O)C(O)C4O)cc(OC)c3o2)cc1OC` (stereo unspecified), the T/C by setting is: (dose: 18.75 mg/kg/injection, schedule: Q01DX005 (ip), vehicle: Klucel (hydroxypropylcellulose) (HPC)) 96 % of control; (dose: 37.5 mg/kg/injection, schedule: Q01DX005 (ip), vehicle: Klucel (hydroxypropylcellulose) (HPC)) 88 % of control.

Regarding `CCCCCC(=O)c1c(-c2ccc(C)cc2)cc(O)c(CCCC)c1-c1ccc(C)cc1`, the T/C by setting is: (dose: 25.0 mg/kg/injection, schedule: Q01DX005 (ip), vehicle: saline with Tween-80) 108 % of control; under setting [8], 97 % of control; under setting [9], 104 % of control.

For `O=[N+]([O-])c1ccc(-c2csc(-c3ccc(Br)cc3)n2)cc1`, the T/C was 87 % of control under setting [14], 95 % of control under setting [15] and 92 % of control under setting [16].

With `COc1ccccc1-n1c(C)nc2c(cnn2C)c1=O`, the T/C is 100 % of control under setting [10], 100 % of control under setting [11] and 103 % of control under setting [12].

In the case of `COc1ccc(C2=CC(OO)(C(C)(C)C)C(=O)C(C(C)(C)C)=C2)cc1.Oc1ccccc1C=NCCC[N-]CCCN=Cc1ccccc1O.[Co]` (stereo unspecified), the T/C by setting is: under setting [14], 101 % of control; under setting [15], 101 % of control; under setting [16], 100 % of control.

As for `O=C1C2=C(C(=O)C3=C1C1C=CC3C1)C1C=CC2C1`, the T/C by setting is: (dose: 100.0 mg/kg/injection, schedule: Q04DX003 (ip), vehicle: Klucel (hydroxypropylcellulose) (HPC)) 118 % of control; (dose: 200.0 mg/kg/injection, schedule: Q04DX003 (ip), vehicle: Klucel (hydroxypropylcellulose) (HPC)) 102 % of control; (dose: 400.0 mg/kg/injection, schedule: Q04DX003 (ip), vehicle: Klucel (hydroxypropylcellulose) (HPC)) 96 % of control.

On to `CCCCCCCCc1c(C)nc(N)[nH]c1=O`, for which the T/C reads like this: under setting [17], 109 % of control; under setting [18], 94 % of control; under setting [19], 88 % of control.

In the case of `COc1ccc(-c2cn(-c3ccc(I)cc3)c3ncnc(N)c23)cc1`, the T/C was 99 % of control under setting [17], 105 % of control under setting [18] and 90 % of control under setting [19].

Consider `OCCN1CCOCC1`, for which the T/C is, setting by setting: under setting [5], 95 % of control; under setting [7], 95 % of control; (dose: 400.0 mg/kg/injection, schedule: Q04DX003 (ip), vehicle: saline with Tween-80) 95 % of control.

Consider `CC1=CC2(C)C3C(=O)NC(=O)C3C1C1(C)C3C(=O)NC(=O)C3C21` (stereo unspecified), for which the T/C was 103 % of control (dose: 25.0 mg/kg/injection, schedule: Q01DX009 (ip), vehicle: Klucel (hydroxypropylcellulose) (HPC)); 108 % of control under setting [14]; 109 % of control under setting [15]; 97 % of control under setting [16].

Turning to `CCOC(=O)C(C(=O)OCC)c1ccccn1`, the T/C runs as follows: under setting [4], 98 % of control; under setting [13], 107 % of control; under setting [6], 108 % of control.
